Data as given in patent US20080261891A1, “COMPOSITIONS AND METHODS FOR USING SYRINGOPEPTIN 25A AND RHAMNOLIPIDS” (Utah State University, priority 2007, published 2008).
≈ marks a conversion by molar mass, not a printed value. Entries after “also recorded” stand apart in the source; their conditions may differ. Where a SMILES comes first, the peptide text is derived from it. Bridges are numbered along the chain shown (N, C = ends). [ ]: non-standard residue; d: D form. The star is where a group is joined. ξ: configuration not given here. Decanoyl(3ξ-OH) = CCCCCCCC(O)CC(=O)*; Dab = NCC[CH](N)C(=O)O; Dhb = C/C=C(\N)C(=O)O

Key:
Aeromonas caviae = assay: MIC, microbroth dilution method; assay type: cell-based; conditions: 48 h
Protocol: (§1) The MIC of the compounds for the organisms was determined by the microbroth dilution method, described hereafter. The microorganisms were prepared as described above and resuspended in their optimal growth media (Table 1) to ˜10^5 CFU/mL containing SP 25A at 2, 3, 4, 5, 6, 7, 8, 16, 32 and 50 μg/mL in a total volume of 550 μL. RL concentrations of 2, 3, 4, 5, 6, 7, 8, 16, 32 and 60 μg/mL in a total volume of 550 μL were tested in a 48-well plate (Corning, N.Y.). The plates were incubated at optimal growth conditions for the respective organism and monitored for an increase in OD600 after 48 h by a Perkin-Elmer (HTS 7000) plate reader (Downers Grove, Ill.). […] Negative controls (no inhibition of growth) were included using saline in the assay for each compound. The lowest concentration at which there was no increase in OD over 48 h was reported as the MIC. Each MIC was determined in replicate with three separate tests per replication. The results of the three tests were averaged for each replicate.

Erwinia herbicola = assay: MIC, microbroth dilution method; assay type: cell-based; conditions: 48 h
Protocol: as §1

Flavobacterium devorans = assay: MIC, microbroth dilution method; assay type: cell-based; conditions: 48 h
Protocol: as §1

[1] = test system: Klebsiella pneumoniae subsp. Pneumoniae; assay: MIC, microbroth dilution method; assay type: cell-based; conditions: 48 h
Protocol: as §1

Micrococcus luteus = assay: MIC, microbroth dilution method; assay type: cell-based; conditions: 48 h
Protocol: as §1

Salmonella typhimurium = assay: MIC, microbroth dilution method; assay type: cell-based; conditions: 48 h
Protocol: as §1

[2] = test system: Bacillus subtilis (spores); assay: MIC, microbroth dilution method (spore germination); assay type: cell-based; conditions: inhibition of spore germination, 48 h
Protocol: as §1

[3] = test system: Clostridium sporogenes (spores); assay: as above; assay type: cell-based; conditions: inhibition of spore germination, 48 h
Protocol: as §1

[4] = test system: Listeria monocytogenes EGDe; assay: Cell growth (cell density, OD600) during treatment over 120 min; assay type: cell-based
Protocol: FIG. 6B includes a graph that illustrates the amount of cell growth in response to being treated with SP 25A, RLs and saline (control) over a period of 120 min. […] The lack of positive correlation between membrane permeabilization (FIG. 6A) and inhibition of cell growth (FIG. 6B) of SP 25A inferred that the pore forming model alone was not be responsible for all of the antimicrobial properties of SP 25A.
Listeria monocytogenes EGDe was thawed and subcultured twice at 37° C. in brain heart infusion broth (BHI) (DIFCO, Franklin Lanes, N.J.). An overnight culture was diluted 10 fold in sterile medium and grown for 4 h to an OD600 of 1.7, which corresponded to ˜10^9 cfu/mL. The cell preparation was exposed to either 3 μg/mL SP 25A or 6 μg/mL RLs. Treatment with both RLs and SP 25A caused membrane permeabilization (FIG. 6A), but each reduced cell growth (FIG. 6B) of L. monocytogenes by different amounts. […]
Total RNA was extracted from a 1.8 mL culture immediately before treating the cells with SP 25A and RLs (T0), after 30 min (T30), and at 120 min (T120) of exposure at 37° C. Simultaneously, the cell density was measured at OD600. Membrane permeabilization was determined by measuring the PI uptake. […] Each well contained five probes for each open reading frame in the entire genome.

[5] = test system: human embryonic kidney cells (HEK 293); assay: Toxicity to mammalian cells, percent cell death (Nucleocounter); conditions: 4 μg/mL and 8 μg/mL, 6, 24, and 48 h
Protocol: (§2) Toxicity of the two compounds to mammalian cells was assayed in cell culture using mouse enteroendocrine cells (STC-1), human embryonic kidney cells (HEK 293; ATCC CRL-1573), and human lung fibroblasts (LL47; ATCC CCL-135). […] The human embryonic kidney cells and human lung fibroblasts were grown as per the American Type Culture Collection's recommendation, while the mouse enteroendocrine cells were grown as described by Vincent et al. (2001, Proc. Natl. Acad. Sci., 99:2392-2397). Media and sera were purchased from HyClone Laboratories (Logan, Utah). All cells were grown in 10% fetal bovine serum (FBS).
(§3) The number in the parenthesis represents the concentration of each compound in μg/mL. The percent cell death was benchmarked to 100% lysis with the positive control. The number of total cells and dead cells were counted after 6, 24, and 48 h using a Nucleocounter Automated cell counting system (New Brunswick; Edison, N.J.). Briefly, cells (STC, 200,000 cells/well; HEK 293, 200,000 cells/well; and LL47, 100,000 cells/well) were incubated in the appropriate medium for 24 h prior to addition of fresh media containing the antimicrobial compounds. After addition of the antimicrobial compound, the cell cultures were incubated at 37° C. with 5% CO2 for 6, 24, and 48 h. Cells were harvested by trypsinization using 0.25% trypsin-EDTA for 2 min. The trypsin was neutralized by addition of 200 μL of serum containing fresh medium. The cells were then harvested and transferred to 1.5 mL tubes, centrifuged (3-5 min at <100×g), and resuspended in 200 μL of fresh medium. For the total cell count, 100 μL of the suspension was added to lysis buffer (Reagent A100 in the starting kit (Cat No. M1293-0020, New Brunswick Scientific) for 30 s, which was stabilized using 100 μL of Reagent B. A positive control of completely lysed cells was used along with a negative control using sterile PBS (pH 7.4). For dead cell counts, 100 μL of cell lysate was counted without the use of lysis buffer or stabilizing buffer. All cell counts were obtained using the Nucleocounter automated cell counting system. Data were reported as the percent of cell death. The toxicity testing was done in replicate using three wells per test.

[6] = test system: human lung fibroblasts (LL47); assay: as above; conditions: 4 μg/mL and 8 μg/mL, 6, 24, and 48 h
Protocol: as §2, §3

[7] = test system: mouse enteroendocrine cells (STC-1); assay: as above; conditions: 4 μg/mL and 8 μg/mL, 6, 24, and 48 h
Protocol: as §2, §3

[8] = test system: organisms tested (gram-positive and gram-negative bacteria, Table 1)

**Q.** Which results are given for `C/C=C(\NC(=O)C(C)NC(=O)C(C)NC(=O)C(CC(C)C)NC(=O)C(NC(=O)C(C)NC(=O)C(C)NC(=O)C(NC(=O)C1CCCN1C(=O)/C(=C/C)NC(=O)CC(O)CCCCCCC)C(C)C)C(C)C)C(=O)NC(C(=O)N/C(=C\C)C(=O)NC(C)C(=O)NC(C(=O)NC(C)C(=O)NC(C)C(=O)N/C(=C\C)C(=O)NC1C(=O)NC(CO)C(=O)NC(C)C(=O)NC(C(C)C)C(=O)NC(C)C(=O)NC(CCN)C(=O)NC(CCN)C(=O)NC(Cc2ccc(O)cc2)C(=O)OC1C)C(C)C)C(C)C` (stereo not shown) [SP 25A, syringopeptin 25A] ({Decanoyl(3ξ-OH)}-[Dhb]PVAAVLAA[Dhb]V[Dhb]AVAA[Dhb]TSAVA[Dab][Dab]Y; ester 18-C; configuration not given here)?
**A.** MIC (Aeromonas caviae): >50 µg/mL; MIC (Erwinia herbicola): >50 µg/mL; MIC (Flavobacterium devorans): 4 µg/mL (≈ 1.67 µM); MIC [1]: >50 µg/mL; MIC (Micrococcus luteus): 4 µg/mL (≈ 1.67 µM); MIC (Salmonella typhimurium): >50 µg/mL; MIC [2]: 4 µg/mL (≈ 1.67 µM); MIC [3]: 4 µg/mL (≈ 1.67 µM); growth of culture (cell density) ([4]; 3 μg/mL SP 25A, during 120 min, control culture grew by 15.3%): did not grow; inhibition of cell growth ([4]; in comparison to the saline control, 120 min): completely inhibited cell growth; also recorded: complete inhibition of cell growth; cytotoxicity (percent cell death) [5]: No significant (p>0.05) cytotoxicity; cytotoxicity (percent cell death) [6]: No significant (p>0.05) cytotoxicity; cytotoxicity (percent cell death) [7]: No significant (p>0.05) cytotoxicity; MIC range for the organisms tested [8]: 3 to 16 µg/mL; MICs against gram-positive bacteria [8]: ≤ 8 µg/mL; growth inhibition of gram-negative organisms tested ([8]; gram-negative organisms, except F. devorans): did not inhibit the growth
